Results reported in US8871753B2, “Macrocyclic compounds and their use as kinase inhibitors” (Incyte Corporation, priority 2008, dated 2014).
Counter-ions that a name gives are not always drawn. Like-named read-outs stand apart in the source and are kept apart here.

What was measured:
Type in all cases: biochemical
TYK2 = TYK2 (Homo sapiens, UniProt P29597); test: TYK2 kinase inhibition (Table A1)
[1] = target: T1, Recombinant Human Anaplastic Lymphoma Kinase (Homo sapiens, UniProt Q9UM73); test: ALK HTRF kinase assay
T1 construct: purchased Invitrogen, Carlsbad, Calif
Method in brief: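 IC50 was obtained from a logistic fit of signal versus log inhibitor concentration, using pre- and post-transition baselines and a Hill slope. The signal reported tyrosine phosphorylation of a biotinylated peptide by recombinant human kinase, detected as Eu-to-APC energy transfer.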

[2] = target: T2, human JAK3 (a.a. 781-1124) (Homo sapiens, UniProt P52333); test: In vitro JAK kinase assay (HTRF, phosphorylation of a biotinylated peptide), JAK3
T2 construct: JAK3 (a.a. 781-1124); His tag (N); made in house; host or cells: insect cells (baculovirus)
Method in brief: (§1)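 Kinase activity was measured as phosphorylation of a biotinylated peptide, with ATP at 90 μM for JAK1, 30 μM for JAK2 and 3 μM for JAK3. Reactions ran 1 hr at room temperature, were stopped with EDTA plus SA-APC and Eu-Py20, and were read by HTRF after 40 minutes of antibody binding.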

[3] = target: T3, human JAK1 (a.a. 837-1142) (Homo sapiens, UniProt P23458); test: In vitro JAK kinase assay (HTRF, phosphorylation of a biotinylated peptide), JAK1; conditions: read-out: JAK1 IC50
T3 construct: human JAK1 (a.a. 837-1142); His tag (N); made in house; host or cells: insect cells (baculovirus)
Method in brief: as §1

[4] = target: T4, human JAK2 (a.a. 828-1132) (Homo sapiens, UniProt O60674); test: In vitro JAK kinase assay (HTRF, phosphorylation of a biotinylated peptide), JAK2
T4 construct: JAK2 (a.a. 828-1132); His tag (N); made in house; host or cells: insect cells (baculovirus)
Method in brief: as §1

[5] = compound at 500 nM or 1 mM, 90 μM ATP
[6] = method AA1 (3 μM ATP) or AA2 (1000 μM ATP), not stated per value
[7] = method AA1 (90 μM ATP) or AA2 (1000 μM ATP), not stated per value
[8] = method AA1 (30 μM ATP) or AA2 (1000 μM ATP), not stated per value
[9] = compound at a concentration of 500 nM or 1 mM (not specified), cells shown as percentage

T4 sequence (O60674 828-1132): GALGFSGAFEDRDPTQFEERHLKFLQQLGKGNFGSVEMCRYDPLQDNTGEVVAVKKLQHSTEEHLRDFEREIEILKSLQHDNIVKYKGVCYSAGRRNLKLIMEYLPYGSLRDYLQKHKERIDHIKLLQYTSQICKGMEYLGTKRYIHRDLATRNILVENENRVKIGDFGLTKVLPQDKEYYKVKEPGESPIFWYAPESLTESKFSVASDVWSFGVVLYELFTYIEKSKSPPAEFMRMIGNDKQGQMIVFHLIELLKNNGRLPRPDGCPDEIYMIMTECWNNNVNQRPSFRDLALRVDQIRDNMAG
T3 sequence (P23458 849-1154): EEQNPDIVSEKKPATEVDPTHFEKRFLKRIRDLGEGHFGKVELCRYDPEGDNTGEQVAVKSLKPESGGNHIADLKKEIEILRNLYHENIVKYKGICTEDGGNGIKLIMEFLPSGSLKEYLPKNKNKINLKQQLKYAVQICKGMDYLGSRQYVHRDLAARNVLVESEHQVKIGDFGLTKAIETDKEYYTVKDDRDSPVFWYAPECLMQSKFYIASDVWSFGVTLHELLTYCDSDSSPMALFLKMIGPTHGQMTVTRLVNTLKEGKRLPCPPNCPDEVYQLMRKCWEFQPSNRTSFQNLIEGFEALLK
T1 sequence (Q9UM73 19-1620): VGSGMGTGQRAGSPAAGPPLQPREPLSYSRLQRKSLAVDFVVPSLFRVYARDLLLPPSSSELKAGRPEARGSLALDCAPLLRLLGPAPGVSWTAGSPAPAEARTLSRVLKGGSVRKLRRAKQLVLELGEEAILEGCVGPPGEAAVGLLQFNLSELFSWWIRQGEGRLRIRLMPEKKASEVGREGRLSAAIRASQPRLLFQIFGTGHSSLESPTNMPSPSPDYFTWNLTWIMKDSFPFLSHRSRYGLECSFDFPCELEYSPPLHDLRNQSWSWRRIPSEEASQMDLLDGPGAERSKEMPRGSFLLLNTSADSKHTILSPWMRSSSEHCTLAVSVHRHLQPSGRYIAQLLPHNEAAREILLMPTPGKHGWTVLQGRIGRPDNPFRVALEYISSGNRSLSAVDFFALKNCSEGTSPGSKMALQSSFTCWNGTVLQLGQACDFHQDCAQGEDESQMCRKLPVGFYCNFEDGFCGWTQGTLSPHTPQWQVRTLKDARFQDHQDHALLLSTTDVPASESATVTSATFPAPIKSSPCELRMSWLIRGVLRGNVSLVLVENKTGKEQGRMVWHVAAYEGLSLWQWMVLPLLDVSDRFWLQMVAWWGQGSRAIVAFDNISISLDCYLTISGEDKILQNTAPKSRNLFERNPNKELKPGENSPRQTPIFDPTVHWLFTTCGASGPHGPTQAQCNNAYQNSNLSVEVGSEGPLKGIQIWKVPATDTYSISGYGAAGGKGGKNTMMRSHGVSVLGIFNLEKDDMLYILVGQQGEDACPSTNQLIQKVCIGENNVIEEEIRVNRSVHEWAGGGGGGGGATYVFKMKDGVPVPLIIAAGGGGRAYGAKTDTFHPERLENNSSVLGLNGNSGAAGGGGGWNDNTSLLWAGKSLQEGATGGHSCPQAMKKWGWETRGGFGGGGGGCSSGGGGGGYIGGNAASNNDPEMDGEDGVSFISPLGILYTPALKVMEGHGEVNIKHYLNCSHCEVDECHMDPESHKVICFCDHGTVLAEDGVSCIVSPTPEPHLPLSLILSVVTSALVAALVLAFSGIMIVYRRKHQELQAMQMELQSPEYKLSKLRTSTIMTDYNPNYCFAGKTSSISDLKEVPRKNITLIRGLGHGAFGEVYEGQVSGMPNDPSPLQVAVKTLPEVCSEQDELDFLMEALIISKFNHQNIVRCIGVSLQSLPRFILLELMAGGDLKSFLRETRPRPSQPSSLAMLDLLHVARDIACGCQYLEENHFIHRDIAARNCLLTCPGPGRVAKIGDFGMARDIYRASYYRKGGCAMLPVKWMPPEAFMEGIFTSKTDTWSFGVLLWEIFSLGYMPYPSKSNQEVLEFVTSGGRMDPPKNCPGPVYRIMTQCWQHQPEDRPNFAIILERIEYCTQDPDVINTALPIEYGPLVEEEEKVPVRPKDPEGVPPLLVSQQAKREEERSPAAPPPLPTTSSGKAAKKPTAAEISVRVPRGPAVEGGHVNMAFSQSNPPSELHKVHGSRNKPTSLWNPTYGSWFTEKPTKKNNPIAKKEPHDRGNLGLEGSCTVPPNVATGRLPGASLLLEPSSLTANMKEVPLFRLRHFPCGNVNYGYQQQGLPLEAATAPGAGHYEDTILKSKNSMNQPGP
Chain of TYK2 (P29597 whole entry): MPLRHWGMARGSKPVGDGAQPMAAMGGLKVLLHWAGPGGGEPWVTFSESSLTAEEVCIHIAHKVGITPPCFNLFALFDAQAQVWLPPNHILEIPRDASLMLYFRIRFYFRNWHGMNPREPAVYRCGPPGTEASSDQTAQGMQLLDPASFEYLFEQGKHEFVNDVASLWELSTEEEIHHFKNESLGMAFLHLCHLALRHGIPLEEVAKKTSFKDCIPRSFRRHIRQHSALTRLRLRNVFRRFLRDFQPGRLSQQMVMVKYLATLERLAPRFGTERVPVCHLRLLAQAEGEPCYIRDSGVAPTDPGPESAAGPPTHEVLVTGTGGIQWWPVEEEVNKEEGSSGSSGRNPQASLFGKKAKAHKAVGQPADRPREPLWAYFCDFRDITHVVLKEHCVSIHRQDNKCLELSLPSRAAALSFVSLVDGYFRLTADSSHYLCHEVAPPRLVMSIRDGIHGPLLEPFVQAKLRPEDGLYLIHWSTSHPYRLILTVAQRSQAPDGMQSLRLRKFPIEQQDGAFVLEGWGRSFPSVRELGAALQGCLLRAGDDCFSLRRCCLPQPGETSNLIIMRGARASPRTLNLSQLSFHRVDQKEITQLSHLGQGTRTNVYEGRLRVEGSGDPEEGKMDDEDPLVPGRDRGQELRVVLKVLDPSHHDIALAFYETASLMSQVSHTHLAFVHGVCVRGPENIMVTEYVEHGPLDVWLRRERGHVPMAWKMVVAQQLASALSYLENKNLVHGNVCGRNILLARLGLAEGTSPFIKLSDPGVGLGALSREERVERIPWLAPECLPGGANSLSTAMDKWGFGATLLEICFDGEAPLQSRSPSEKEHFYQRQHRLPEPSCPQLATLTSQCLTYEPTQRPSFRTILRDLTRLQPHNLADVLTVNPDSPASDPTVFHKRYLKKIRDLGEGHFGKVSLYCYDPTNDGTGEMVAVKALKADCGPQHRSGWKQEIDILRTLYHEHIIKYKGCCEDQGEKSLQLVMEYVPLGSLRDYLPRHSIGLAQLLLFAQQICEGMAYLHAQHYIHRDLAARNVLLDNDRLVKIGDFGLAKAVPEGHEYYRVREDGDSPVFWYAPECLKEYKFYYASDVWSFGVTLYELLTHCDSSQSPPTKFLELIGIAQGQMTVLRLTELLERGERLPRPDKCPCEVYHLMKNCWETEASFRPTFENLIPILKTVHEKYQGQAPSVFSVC
T2 sequence (P52333 781-1124): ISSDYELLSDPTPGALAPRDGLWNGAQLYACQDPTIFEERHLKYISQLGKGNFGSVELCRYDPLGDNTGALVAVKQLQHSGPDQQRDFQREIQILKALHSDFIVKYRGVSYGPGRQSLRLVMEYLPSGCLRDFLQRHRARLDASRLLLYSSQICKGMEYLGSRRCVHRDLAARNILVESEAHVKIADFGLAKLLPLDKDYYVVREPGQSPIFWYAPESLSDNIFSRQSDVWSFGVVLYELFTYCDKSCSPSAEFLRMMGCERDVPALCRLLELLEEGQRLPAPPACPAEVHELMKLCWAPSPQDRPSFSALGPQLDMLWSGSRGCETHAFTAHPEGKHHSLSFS

## NS(=O)(=O)N1CCC(C(=O)Nc2ccc3cc2CCc2cccc(c2)Nc2ncc(Cl)c(n2)N3)CC1 [Example A72, 1-(Aminosulfonyl)-N-[6-chloro-2,4,8,22-tetraazatetracyclo[14.3.1.1(3,7).1(9,13)]docosa-1(20),3(22),4,6,9(21),10,12,16,18-nonaen-12-yl]piperidine-4-carboxamide trifluoroacetate]
TYK2
  IC50: 0.016 µM
[1]; [5]
  ALK % of inhibition at a concentration of 500 nM or 1 mM: 34%
[2]; [6]
  IC50: 0.01 µM
[3]; [7]
  IC50: 0.018 µM
[4]; [8]
  IC50: 0.0037 µM

## O=S1(=O)Nc2cccc(c2)Nc2ncc(Cl)c(n2)Nc2cccc1c2 [Example C7, 6-Chloro-14-thia-2,4,8,15,22-pentaazatetracyclo[14.3.1.1(3,7).1(9,13)]docosa-1(20),3(22),4,6,9(21),10,12,16,18-nonaene 14,14-dioxide trifluoroacetate]
TYK2
  IC50: 0.032 µM
[1]
  IC50: 1.9 µM
[2]
  IC50: 0.082 µM
[3]
  IC50: 0.063 µM
[4]
  IC50: 0.036 µM

## O=C(NCc1ccco1)Nc1cc2cc(c1)OCCSc1cccc(c1)Nc1nc(ncc1Cl)N2 [Example D67, N-[6-Chloro-17-oxa-14-thia-2,4,8,24-tetraazatetracyclo[16.3.1.1(3,7).1(9,13)]tetracosa-1(22),3(24),4,6,9(23),10,12,18,20-nonaen-20-yl]-N′-(2-furylmethyl)urea trifluoroacetate]
TYK2; Table D1
  IC50: 0.0024 µM
[1]; Table D1, 90 μM ATP
  IC50: > 1 µM
[2]; Table D1
  IC50: 0.0084 µM
[3]; Table D1
  IC50: 0.0032 µM
[4]; Table D1
  IC50: 0.0018 µM

## O=C(NCc1ccccc1)Nc1cc2cc(c1)OCCSc1cccc(c1)Nc1nc(ncc1Cl)N2 [Example D66, N-Benzyl-N′-[6-chloro-17-oxa-14-thia-2,4,8,24-tetraazatetracyclo[16.3.1.1(3,7).1(9,13)]tetracosa-1(22),3(24),4,6,9(23),10,12,18,20-nonaen-20-yl]urea trifluoroacetate]
TYK2; Table D1
  IC50: 0.0034 µM
[1]; Table D1, 90 μM ATP
  IC50: 0.77 µM
[2]; Table D1
  IC50: 0.0096 µM
[3]; Table D1
  IC50: 0.0073 µM
[4]; Table D1
  IC50: 0.003 µM

## Cc1ccccc1S(=O)(=O)N1CCC(CC(=O)Nc2ccc3cc2CCc2cncc(c2)Nc2ncc(Cl)c(n2)N3)CC1 [Example A225, N-[6-Chloro-2,4,8,18,22-pentaazatetracyclo[14.3.1.1(3,7).1(9,13)]docosa-1(20),3(22),4,6,9(21),10,12,16,18-nonaen-12-yl]-2-{1-[(2-methylphenyl)sulfonyl]piperidin-4-yl}acetamide bis(trifluoroacetate)]
TYK2
  IC50: > 0.4 µM
[1]; [5]
  ALK % of inhibition at a concentration of 500 nM or 1 mM: 36%
[2]; [6]
  IC50: > 0.4 µM
[3]; [7]
  IC50: 0.0072 µM
[4]; [8]
  IC50: 0.18 µM

## O=C(CC1CCN(S(=O)(=O)c2cccnc2)CC1)Nc1ccc2cc1CCc1cccc(c1)Nc1ncc(Cl)c(n1)N2 [Example A212, N-[6-Chloro-2,4,8,22-tetraazatetracyclo[14.3.1.1(3,7).1(9,13)]docosa-1(20),3(22),4,6,9(21),10,12,16,18-nonaen-12-yl]-2-[1-(pyridin-3-ylsulfonyl)piperidin-4-yl]acetamide bis(trifluoroacetate)]
TYK2
  IC50: 0.085 µM
[1]; [5]
  ALK % of inhibition at a concentration of 500 nM or 1 mM: 45%
[2]; [6]
  IC50: > 0.2 µM
[3]; [7]
  IC50: 0.0013 µM
[4]; [8]
  IC50: 0.0086 µM

## O=C(CC1CCN(S(=O)(=O)c2ccco2)CC1)Nc1ccc2cc1CCc1cccc(c1)Nc1ncc(Cl)c(n1)N2 [Example A211, N-[6-Chloro-2,4,8,22-tetraazatetracyclo[14.3.1.1(3,7).1(9,13)]docosa-1(20),3(22),4,6,9(21),10,12,16,18-nonaen-12-yl]-2-[1-(2-furylsulfonyl)piperidin-4-yl]acetamide trifluoroacetate]
TYK2
  IC50: 0.15 µM
[1]; [5]
  ALK % of inhibition at a concentration of 500 nM or 1 mM: 37%
[2]; [6]
  IC50: > 0.2 µM
[3]; [7]
  IC50: 0.012 µM
[4]; [8]
  IC50: 0.066 µM

## CC(C)(C)OC(=O)N1CC[C@H](NCc2ccc3cc2CCc2cccc(c2)Nc2ncc(Cl)c(n2)N3)C1 [Example B220, tert-Butyl (3S)-3-({[6-chloro-2,4,8,22-tetraazatetracyclo[14.3.1.1(3,7).1(9,13)]docosa-1(20),3(22),4,6,9(21),10,12,16,18-nonaen-12-yl]methyl}amino)pyrrolidine-1-carboxylate bis(trifluoroacetate)]
TYK2; Table B1
  IC50: 0.028 µM
[1]; [9]
  ALK % of inhibition at a concentration of 500 nM or 1 mM: 25%
[2]; Table B1
  IC50: 0.036 µM
[3]; Table B1
  IC50: 0.0074 µM
[4]; Table B1
  IC50: 0.012 µM

## O=S(=O)(Nc1ccc2cc1CCc1cccc(c1)Nc1ncc(Cl)c(n1)N2)C1CC1 [Example B158, N-[6-Chloro-2,4,8,22-tetraazatetracyclo[14.3.1.1(3,7).1(9,13)]docosa-1(20), 3(22),4,6,9(21),10,12,16,18-nonaen-12-yl]cyclopropanesulfonamide trifluoroacetate]
TYK2; Table B1
  IC50: 0.00049 µM
[1]; [9]
  ALK % of inhibition at a concentration of 500 nM or 1 mM: 71%
[2]; Table B1
  IC50: 0.00064 µM
[3]; Table B1
  IC50: 0.00015 µM
[4]; Table B1
  IC50: 0.00015 µM

## O=C(Nc1ccc2cc1CCc1cccc(c1)Nc1ncc(Cl)c(n1)N2)N[C@H]1CCN(C(=O)c2ccno2)C1 [Example B230, N-[6-Chloro-2,4,8,22-tetraazatetracyclo[14.3.1.1(3,7).1(9,13)]docosa-1(20),3(22),4,6,9(21),10,12,16,18-nonaen-12-yl]-N′-[(3S)-1-(isoxazol-5-ylcarbonyl)pyrrolidin-3-yl]urea trifluoroacetate]
TYK2; Table B1
  IC50: 0.015 µM
[1]; [9]
  ALK % of inhibition at a concentration of 500 nM or 1 mM: 11%
[2]; Table B1
  IC50: 0.05 µM
[3]; Table B1
  IC50: 0.002 µM
[4]; Table B1
  IC50: 0.007 µM

## CN(C(=O)Nc1ccc2cc1CCc1cncc(c1)Nc1ncc(Cl)c(n1)N2)[C@H]1CCN(C(=O)c2ccccc2)C1 [Example B291, N-[(3S)-1-Benzoylpyrrolidin-3-yl]-N′-[6-chloro-2,4,8,18,22-pentaazatetracyclo[14.3.1.1(3,7).1(9,13)]docosa-1(20),3(22),4,6,9(21),10,12,16,18-nonaen-12-yl]-N-methylurea bis(trifluoroacetate)]
TYK2; Table B1
  IC50: 0.199 µM
[1]; [9]
  ALK % of inhibition at a concentration of 500 nM or 1 mM: 58%
[2]; Table B1
  IC50: > 0.2 µM
[3]; Table B1
  IC50: 0.028 µM
[4]; Table B1
  IC50: 0.1 µM

## Cc1cc(C(=O)Nc2ccc3cc2CCc2cccc(c2)Nc2ncc(Cl)c(n2)N3)nc(Cl)n1 [Example B280, 2-Chloro-N-[6-chloro-2,4,8,22-tetraazatetracyclo[14.3.1.1(3,7).1(9,13)]docosa-1(20),3(22),4,6,9(21),10,12,16,18-nonaen-12-yl]-6-methylpyrimidine-4-carboxamide bis(trifluoroacetate)]
TYK2; Table B1
  IC50: 1.79 µM
[1]; [9]
  ALK % of inhibition at a concentration of 500 nM or 1 mM: 4.6%
[2]; Table B1
  IC50: > 10 µM
[3]; Table B1
  IC50: 0.276 µM
[4]; Table B1
  IC50: 0.446 µM

## N#CCC(=O)Nc1ccc2cc1CCc1cccc(c1)Nc1ncc(Cl)c(n1)N2 [Example A65, N-[6-Chloro-2,4,8,22-tetraazatetracyclo[14.3.1.1(3,7).1(9,13)]docosa-1(20), 3(22),4,6,9(21),10,12,16,18-nonaen-12-yl]-2-cyanoacetamide trifluoroacetate]
TYK2
  IC50: 0.017 µM
[1]; [5]
  ALK % of inhibition at a concentration of 500 nM or 1 mM: 39%
[2]; [6]
  IC50: 0.0073 µM
[3]; [7]
  IC50: 0.009 µM
[4]; [8]
  IC50: 0.011 µM

## N#Cc1cccc(S(=O)(=O)Nc2ccc3cc2CCc2cccc(c2)Nc2ncc(Cl)c(n2)N3)c1 [Example B153, N-[6-Chloro-2,4,8,22-tetraazatetracyclo[14.3.1.1(3,7).1(9,13)]docosa-1(20),3(22),4,6,9(21),10,12,16,18-nonaen-12-yl]-3-cyanobenzenesulfonamide trifluoroacetate]
TYK2; Table B1
  IC50: 0.00044 µM
[1]; Table B1, cells without percent sign
  IC50: 0.07 µM
[2]; Table B1
  IC50: 0.00048 µM
[3]; Table B1
  IC50: 0.00069 µM
[4]; Table B1
  IC50: 0.0001 µM

## Clc1cnc2nc1Nc1ccc(CN[C@H]3CCNC3)c(c1)CCc1cccc(c1)N2 [Example B223, (3S)—N-{[6-Chloro-2,4,8,22-tetraazatetracyclo[14.3.1.1(3,7).1(9,13)]docosa-1(20),3(22),4,6,9(21),10,12,16,18-nonaen-12-yl]methyl}pyrrolidin-3-amine tris(trifluoroacetate)]
TYK2; Table B1
  IC50: 0.042 µM
[1]; [9]
  ALK % of inhibition at a concentration of 500 nM or 1 mM: 41%
[2]; Table B1
  IC50: 0.029 µM
[3]; Table B1
  IC50: 0.017 µM
[4]; Table B1
  IC50: 0.0074 µM

## CCOC(=O)CNC(=O)N1CCC(C(=O)Nc2ccc3cc2CCc2cccc(c2)Nc2ncc(Cl)c(n2)N3)CC1 [Example A60, Ethyl ({[4-({[6-chloro-2,4,8,22-tetraazatetracyclo[14.3.1.1(3,7).1(9,13)]docosa-1(20),3(22),4,6,9(21),10,12,16,18-nonaen-12-yl]amino}carbonyl)piperidin-1-yl]carbonyl}amino)acetate trifluoroacetate]
TYK2
  IC50: 0.022 µM
[1]; [5]
  ALK % of inhibition at a concentration of 500 nM or 1 mM: 28%
[2]; [6]
  IC50: 0.014 µM
[3]; [7]
  IC50: 0.031 µM
[4]; [8]
  IC50: 0.0065 µM
